Marks after values point to notes of the source that are not given here. Peptide text beside a SMILES is read from it.
Legend:
[1] = system: panelists; assay: Sweetness matching of monatin/salt combinations in water pH 7 and citric/citrate buffer pH 3, Examples 3-5; type: in vivo, human
Method: Test and reference solutions were prepared in the same medium. The SEVs of monatin/salt combinations at the appropriate concentrations were measured and compared to the SEV of monatin measured in the absence of any salts. […] Monatin-containing test samples and sucrose references were prepared in the same medium. Based on the previous observations that the sweetness of monatin relative to sucrose is sweeter at acidic pH, this study was carried out under two pH conditions; specifically, in water at pH 7-7.5 and in a citric/citrate buffer at pH 3.0. 2R,4R-Monatin mono potassium salt was used as an illustrative form of monatin for the experiments below. All monatin solutions were prepared ‘as is’, i.e., a 40 ppm monatin solution is 40 ppm of monatin mono potassium salt. A sweetness matching procedure was adopted. […] Each test sample was either monatin control or monatin plus designated salt at the stated concentration. Panelists were instructed to taste the test sample and then to identify the reference sample that matched the perceived sweetness of the test sample. If the sweetness of the test sample was judged to fall between that of two references, panelists were instructed to estimate sweetness to one decimal point. Panelists evaluated each sample in duplicate. Results for each test sample were averaged. […] The five samples were tested at pH 7 (water medium) and at pH 3 (citric/citrate buffer). […] The weight percent of calcium in the salt is different for each of the calcium salts. As such, the weight percent of the calcium salt in each sample is calculated in order to determine how much salt is needed to deliver 1200 ppm of calcium cations. […] The weight percent of the other calcium salts is similarly calculated based on the molar weight percent of calcium in the calcium salt. […] The samples were created at pH 3 and pH 7. The impact of other metal ions, specifically potassium and magnesium, (i.e. […] These ions were tested in the form and concentrations found in cow's milk.

[2] = Sweetness of monatin stereoisomers relative to sucrose by weight (from SEV); type: in vivo; details: general statement of the description
Method: As used herein, “sucrose equivalency value”, or SEV, is a measure of sweetness. The SEV is the concentration (% w/v) of a sucrose solution that gives a degree of sweetness that is perceived to be the same degree of sweetness as that of a test sample. For purposes of this disclosure, the SEV of an aqueous or dairy solution containing monatin is determined through comparison of the monatin-containing solution to a series of sucrose containing solutions prepared in the same medium (see Example 1).
Monatin-containing compositions are described herein as being “X” times as sweet as sucrose. The various stereoisomers of monatin are also described as being “X” times sweeter than sucrose. These values are determined from the SEV of the compositions.

[3] = Schiffman, Physiology & Behavior 68 (2000); cited from earlier work
[4] = 200 ppm calcium (from calcium chloride), 40 ppm monatin, pH 3.0
[5] = 200 ppm calcium (from calcium chloride), 40 ppm monatin, pH 7.0
[6] = salt (1450 ppm K+ or 170 ppm Mg2+) with 40 ppm monatin vs monatin only, pH 3.0
[7] = salt (1450 ppm K+ or 170 ppm Mg2+) with 40 ppm monatin, pH 3.0, KCl solutions very salty, estimates difficult
[8] = salt (1450 ppm K+ or 170 ppm Mg++) with 40 ppm monatin vs monatin only, pH 7.0
[9] = salt (1450 ppm K+ or 170 ppm Mg++) with 40 ppm monatin, pH 7.0, KCl solutions very salty, estimates difficult
[10] = calcium salt at 1200 ppm Ca2+ with 40 ppm monatin vs monatin only, pH 3.0
[11] = calcium salt at 1200 ppm Ca2+ with 40 ppm monatin vs monatin only, pH 7.0
[12] = calcium salt at 1200 ppm Ca2+ with 40 ppm monatin, pH 3.0
[13] = calcium salt at 1200 ppm Ca2+ with 40 ppm monatin, pH 7.0
[14] = 400 ppm calcium (from calcium chloride), 40 ppm monatin, pH 3.0
[15] = 400 ppm calcium (from calcium chloride), 40 ppm monatin, pH 7.0
[16] = 800 ppm calcium (from calcium chloride), 40 ppm monatin, pH 3.0
[17] = 800 ppm calcium (from calcium chloride), 40 ppm monatin, pH 7.0
[18] = 1200 ppm calcium (from calcium chloride), 40 ppm monatin, pH 3.0
[19] = 1200 ppm calcium (from calcium chloride), 40 ppm monatin, pH 7.0

calcium
Sweetness Enhancement [1, 4]: 10% | Sweetness Enhancement [1, 5]: 19%

Magnesium gluconate
Sweetness Enhancement [1, 6]: 6% | Sucrose Equivalency Value [1, 7]: 9.1% | Sweetness Enhancement [1, 8]: 9% | Sucrose Equivalency Value [1, 9]: 9.2%

Calcium gluconate
Sweetness Enhancement [1, 10]: 7% | Sweetness Enhancement [1, 11]: 13% | Sucrose Equivalency Value [1, 12]: 9.2% | Sucrose Equivalency Value [1, 13]: 9.5%

[Ca+2].[Cl-].[Cl-] [Calcium chloride]
Sucrose Equivalency Value [1, 4]: 9.5% | Sweetness Enhancement [1, 4]: 10% | Sucrose Equivalency Value [1, 5]: 10.0% | Sweetness Enhancement [1, 5]: 19% | Sucrose Equivalency Value [1, 14]: 10.0% | Sweetness Enhancement [1, 14]: 16% | Sucrose Equivalency Value [1, 15]: 10.2% | Sweetness Enhancement [1, 15]: 21% | Sucrose Equivalency Value [1, 16]: 10.2% | Sweetness Enhancement [1, 16]: 19% | Sucrose Equivalency Value [1, 17]: 10.2% | Sweetness Enhancement [1, 17]: 21% | Sucrose Equivalency Value [1, 18]: 10.3% | Sweetness Enhancement [1, 18]: 20% | Sucrose Equivalency Value [1, 19]: 10.1% | Sweetness Enhancement [1, 19]: 20% | Sweetness Enhancement ([1]; 1600 ppm calcium (from calcium chloride), 40 ppm monatin, pH 3.0): 19% | Sucrose Equivalency Value ([1]; 1600 ppm calcium (from calcium chloride), 40 ppm monatin, pH 3.0, solutions very salty, SEV estimate very difficult): 10.2** % | Sweetness Enhancement ([1]; 1600 ppm calcium (from calcium chloride), 40 ppm monatin, pH 7.0): 21% | Sucrose Equivalency Value ([1]; 1600 ppm calcium (from calcium chloride), 40 ppm monatin, pH 7.0, solutions very salty, SEV estimate very difficult): 10.2** % | Sweetness Enhancement [1, 10]: 20% | Sweetness Enhancement [1, 11]: 20% | Sucrose Equivalency Value [1, 12]: 10.3% | Sucrose Equivalency Value [1, 13]: 10.1%

NC(CC(O)(Cc1c[nH]c2ccccc12)C(=O)O)C(=O)O (stereo not drawn) [S,S stereoisomer of monatin, 4-amino-2-hydroxy-2-(1H-indol-3-ylmethyl)-pentanedioic acid]
times sweeter than sucrose by weight [2]: 50-200 times

CC(O)C(=O)[O-].CC(O)C(=O)[O-].[Ca+2] (stereo not drawn) [Calcium lactate]
Sweetness Enhancement [1, 10]: 10% | Sweetness Enhancement [1, 11]: 13% | Sucrose Equivalency Value [1, 12]: 9.5% | Sucrose Equivalency Value [1, 13]: 9.5%

COC(=O)[C@H](Cc1ccccc1)NC(=O)[C@@H](N)CC(=O)O [aspartame] (HELM PEPTIDE1{D.F.[CO[*:1]]}$$$$V2.0)
effect of the addition of calcium ions on the sweetness intensity of the sweetener [3]: did not have an effect

OC[C@H]1O[C@@](CO)(O[C@H]2O[C@H](CO)[C@@H](O)[C@H](O)[C@H]2O)[C@@H](O)[C@@H]1O [sucrose]
effect of the addition of calcium ions on the sweetness intensity of the sweetener [3]: did not have an effect

[Cl-].[K+] [Potassium chloride]
Sweetness Enhancement [1, 6]: 7% | Sucrose Equivalency Value [1, 7]: 9.2% | Sweetness Enhancement [1, 8]: 4% | Sucrose Equivalency Value [1, 9]: 8.7%
